Test results from patent publication US20210238184A1, “THERAPEUTIC COMPOUNDS” (Genentech, Inc., priority 2018, published 2021).

Legend:
TEAD2 YAP50-100 = TEAD2 YAP50-100 (Homo sapiens, UniProt Q15562); assay: TEAD2:YAP50-100 protein-protein interaction HTRF (TR-FRET) assay; conditions: His-tagged TEAD YAP binding domain (aa 217-447), biotinylated YAP peptide aa 50-100; 30 min pre-incubation, 60 min at room temperature; read-out: TEAD2 YAP50-100 HTRF WuXi EC50
Procedure: (§1) Purified His-tagged TEAD protein (YAP Binding Domain, amino acids 217-447) is pre-incubated with Europium labelled anti-His antibody tracer (Perkin Elmer Cat #AD0110). Small molecule Inhibitors are then incubated with the TEAD-Eu protein complex for 30 minutes to allow for binding to TEAD protein. Biotinylated YAP peptide (AA's 50-100) that has been pre-incubated with streptavidin x1665 acceptor (CIS-Bio Cat #610SAXAC) is added to the compound-TEAD mix. The TEAD-YAP-inhibitor mixture is then incubated for 60 minutes at room temperature. All reactions are carried out in a polystyrene plate. After 60 minutes, the plate is read on a plate reader using TR-FRET mode with wavelengths of 665 nm/615 nm. If YAP binds to TEAD as expected, a TR-FRET signal results from the proximity of YAP and TEAD after binding. If an inhibitor such as peptide 17 (Selleckchem Cat #S8164) interferes with YAP-TEAD binding, the disruption of the YAP:TEAD interaction results in a decrease in TR-FRET signal. The potency of compounds as YAP:TEAD protein-protein interaction (PPi) inhibitors is determined by an IC50 or EC50 value generated using a non-linear four parameter curve fit.

TEAD3 YAP50-100 = TEAD3 YAP50-100 (Homo sapiens, UniProt Q99594); assay: TEAD3:YAP50-100 protein-protein interaction HTRF (TR-FRET) assay; conditions: His-tagged TEAD YAP binding domain (aa 217-447), biotinylated YAP peptide aa 50-100; 30 min pre-incubation, 60 min at room temperature; read-out: TEAD3 YAP50-100 HTRF WuXi EC50
Chain of TEAD3 YAP50-100 (Q99594 216-435 limits assumed): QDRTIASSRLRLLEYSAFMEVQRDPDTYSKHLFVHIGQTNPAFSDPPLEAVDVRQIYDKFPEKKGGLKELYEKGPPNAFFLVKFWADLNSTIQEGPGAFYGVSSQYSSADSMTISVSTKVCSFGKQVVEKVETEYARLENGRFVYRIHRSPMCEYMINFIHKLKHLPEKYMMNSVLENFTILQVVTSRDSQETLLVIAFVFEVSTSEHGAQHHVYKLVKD
Procedure: as §1

Chain of TEAD2 YAP50-100 (Q15562 217-447): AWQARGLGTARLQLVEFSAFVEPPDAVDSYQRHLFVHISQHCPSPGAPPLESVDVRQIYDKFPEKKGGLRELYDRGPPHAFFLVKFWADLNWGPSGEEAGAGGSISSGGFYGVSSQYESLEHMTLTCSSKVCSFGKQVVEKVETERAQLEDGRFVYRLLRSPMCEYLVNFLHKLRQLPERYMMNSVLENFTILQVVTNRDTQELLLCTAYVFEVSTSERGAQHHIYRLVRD

SMILES	EC50 (TEAD2 YAP50-100)	EC50 (TEAD3 YAP50-100)
CCOC(=O)c1cnn2c(=O)cc(-c3ccc(C(F)(F)F)c(C)c3)[nH]c12 [Example 26, Ethyl 5-(3-methyl-4-(trifluoromethyl)phenyl)-7-oxo-4,7-dihydropyrazolo[1,5-a]pyrimidine-3-carboxylate]	956 nM	1410 nM
N#CC1CN(C(=O)c2cnn3c(=O)cc(-c4ccc(C5CCCCC5)cc4)[nH]c23)C1 [Example 44]	5.85 nM	13 nM
CCOC(=O)c1cnn2c(=O)cc(-c3ccc(C(C)(C)C)cc3)[nH]c12 [Example 30]	1620 nM	95 nM
O=C(NC1CC1)c1cnn2c(=O)cc(-c3ccc(C(F)(F)F)cc3)[nH]c12 [Example 27, N-Cyclopropyl-7-oxo-5-(4-(trifluoromethyl)phenyl)-4,7-dihydropyrazolo[1,5-a]pyrimidine-3-carboxamide]	211 nM	3510 nM
CN(C)C(=O)c1cnn2c(=O)cc(-c3ccc(C4CCC4)cc3)[nH]c12 [Example 36, 5-(4-Cyclobutylphenyl)-N,N-dimethyl-7-oxo-4,7-dihydropyrazolo[1,5-a]pyrimidine-3-carboxamide]	1870 nM	28 nM
CN(C)C(=O)c1cnn2c(=O)cc(-c3ccc(Oc4ccccc4)cc3)[nH]c12 [Example 16, /VA-Dimethyl-7-oxo-5-(4-phenoxyphenyl)-4,7-dihydropyrazolo[1,5-a]pyrimidine-3-carboxamide]	501 nM	1110 nM
O=C(c1cnn2c(=O)cc(-c3ccc(C4CCCCC4)cc3)[nH]c12)N1CCC(F)(F)C1 [Example 42, 5-(4-Cyclohexylphenyl)-3-(3,3-difluoropyrrolidine-1-carbonyl)pyrazolo[1,5-a]pyrimidin-7(4H)-one]	14.5 nM	39.5 nM
CCOC(=O)c1cnn2c(=O)cc(-c3ccc(C4CCC(F)(F)CC4)cc3)[nH]c12 [Example 1, Ethyl 5-(4-(4,4-difluorocyclohexyl)phenyl)-7-oxo-4,7-dihydropyrazolo[1,5-a]pyrimidine-3-carboxylate]	263 nM	41 nM
CCOC(=O)c1cnn2c(=O)cc(-c3ccc(C4(c5ccccc5)CC4)cc3)[nH]c12 [Example 33, Ethyl 7-oxo-5-(4-(1-phenylcyclopropyl)phenyl)-4,7-dihydropyrazolo[1,5-a]pyrimidine-3-carboxylate]	2190 nM	765 nM
CC1(F)CN(C(=O)c2cnn3c(=O)cc(-c4ccc(C5CCCCC5)cc4)[nH]c23)C1 [Example 40, 5-(4-Cyclohexylphenyl)-3-(3-fluoro-3-methylazetidine-1-carbonyl)pyrazolo[1,5-a]pyrimidin-7(4H)-one]	12.5 nM	18.5 nM
CCOC(=O)c1cnn2c(=O)cc(-c3ccc(N4CCCCC4)cc3)[nH]c12 [Example 18, Ethyl 7-oxo-5-(4-(piperidin-1-yl)phenyl)-4,7-dihydropyrazolo[1,5-a]pyrimidine-3-carboxylate]	7350 nM	239 nM
CN(C)C(=O)c1cnn2c(=O)cc(-c3ccc(C4CCCCC4)cc3)[nH]c12 [Example 7, 5-(4-Cyclohexylphenyl)-N,N-dimethyl-7-oxo-4,7-dihydropyrazolo[1,5-a]pyrimidine-3-carboxamide]	87 nM	18 nM
CN(C)C(=O)c1cnn2c(=O)cc(-c3ccc(C4CCCC4(C)C)cc3)[nH]c12 (single isomer, unassigned) [Example 22]	378 nM	42 nM
O=C(c1cnn2c(=O)cc(-c3ccc(C4CCCCC4)cc3)[nH]c12)N1CC(F)(F)C1 [Example 12, 5-(4-Cyclohexylphenyl)-3-(3,3-difluoroazetidine-1-carbonyl)pyrazolo[1,5-a]pyrimidin-7(4H)-one]	68 nM	56 nM
O=C(c1cnn2c(=O)cc(-c3ccc(C4CCCCC4)cc3)[nH]c12)N1CCC1 [Example 8, 3-(Azetidine-1-carbonyl)-5-(4-cyclohexylphenyl)pyrazolo[1,5-a]pyrimidin-7(4H)-one]	38 nM	23 nM
CCN(C)C(=O)c1cnn2c(=O)cc(-c3ccc(C4CCCCC4)cc3)[nH]c12 [Example 6, 5-(4-Cyclohexylphenyl)-N-ethyl-N-methyl-7-oxo-4,7-dihydropyrazolo[1,5-a]pyrimidine-3-carboxamide]	67 nM	18 nM
CCOC(=O)c1cnn2c(=O)cc(-c3ccc(C4CCCCC4)cc3)[nH]c12 [Example 4, Ethyl 5-(4-cyclohexylphenyl)-7-oxo-4,7-dihydropyrazolo[1,5-a]pyrimidine-3-carboxylate]	66 nM	19 nM

SMILES	EC50 (TEAD2 YAP50-100)	EC50 (TEAD3 YAP50-100)
CCOC(=O)c1cnn2c(=O)cc(-c3ccc(OC(C)C)cc3)[nH]c12 [Example 31, Ethyl 5-(4-isopropoxyphenyl)-7-oxo-4,7-dihydropyrazolo[1,5-a]pyrimidine-3-carboxylate]	4040 nM	944 nM
CCOC(=O)c1cnn2c(=O)cc(-c3ccc(C4CCCC4(C)C)cc3)[nH]c12 (single isomer, unassigned) [Example 20]	187 nM	60 nM
CNC(=O)c1cnn2c(=O)cc(-c3ccc(C(F)(F)F)cc3)[nH]c12 [Example 25, N-methyl-7-oxo-5-(4-(trifluoromethyl)phenyl)-4,7-dihydropyrazolo[1,5-a]pyrimidine-3-carboxamide]	212 nM	10400 nM
CCOC(=O)c1cnn2c(=O)cc(-c3ccc(C4CCCC4(C)C)cc3)[nH]c12 (single isomer, unassigned) [Example 19]	270 nM	37 nM
C[C@@H]1[C@H](CF)CN1C(=O)c1cnn2c(=O)cc(-c3ccc(C4CCCCC4)cc3)[nH]c12 (single isomer, unassigned) [Example 46]	755 nM	3100 nM
CCNC(=O)c1cnn2c(=O)cc(-c3ccc(C(F)(F)F)cc3)[nH]c12 [Example 24, N-Ethyl-7-oxo-5-(4-(trifluoromethyl)phenyl)-4,7-dihydropyrazolo[1,5-a]pyrimidine-3-carboxamide]	80 nM	4380 nM
CCOC(=O)c1cnn2c(=O)cc(-c3ccc(-c4ccccc4)cc3)[nH]c12 [Example 34, Ethyl 5-([1,1^1-biphenyl]-4-yl)-7-oxo-4,7-dihydropyrazolo[1,5-a]pyrimidine-3-carboxylate]	1030 nM	41 nM
CCOC(=O)c1c(C(C)C)nn2c(=O)cc(-c3ccc(Oc4ccccc4)cc3)[nH]c12 [Example 29, Ethyl 2-isopropyl-7-oxo-5-(4-phenoxyphenyl)-4,7-dihydropyrazolo[1,5-a]pyrimidine-3-carboxylate]	249 nM	124 nM
CCOC(=O)c1cnn2c(=O)cc(-c3ccc(Oc4ccccc4)c(C)c3)[nH]c12 [Example 14, Ethyl 5-(3-methyl-4-phenoxyphenyl)-7-oxo-4,7-dihydropyrazolo[1,5-a]pyrimidine-3-carboxylate]	747 nM	666 nM
CCOC(=O)c1cnn2c(=O)cc(-c3ccc(Oc4ccccc4)cc3)[nH]c12 [Example 15, Ethyl 7-oxo-5-(4-phenoxyphenyl)-4,7-dihydropyrazolo[1,5-a]pyrimidine-3-carboxylate]	836 nM	532 nM
CN(C)C(=O)c1cnn2c(=O)cc(-c3ccc(C4CCCC4)cc3)[nH]c12 [Example 3, 5-(4-Cyclopentylphenyl)-N,N-dimethyl-7-oxo-4,7-dihydropyrazolo[1,5-a]pyrimidine-3-carboxamide]	342 nM	16 nM
CN(C)C(=O)c1cnn2c(=O)cc(-c3ccc(C4CCCC4(C)C)cc3)[nH]c12 (single isomer, unassigned) [Example 21]	220 nM	21 nM
CCOC(=O)c1cnn2c(=O)cc(-c3ccc(C(F)(F)F)cc3)[nH]c12 [Example 23, Ethyl 7-oxo-5-(4-(trifluoromethyl)phenyl)-4,7-dihydropyrazolo[1,5-a]pyrimidine-3-carboxylate]	1780 nM	834 nM
O=C(c1cnn2c(=O)cc(-c3ccc(C4CCCCC4)cc3)[nH]c12)N1CC(O)C1 [Example 10, 5-(4-Cyclohexylphenyl)-3-(3-hydroxyazetidine-1-carbonyl)pyrazolo[1,5-a]pyrimidin-7(4H)-one]	548 nM	72 nM
CC1CN(C(=O)c2cnn3c(=O)cc(-c4ccc(C5CCCCC5)cc4)[nH]c23)C1 [Example 11, 5-(4-Cyclohexylphenyl)-3-(3-methylazetidine-1-carbonyl)pyrazolo[1,5-a]pyrimidin-7(4H)-one]	11 nM	32 nM
O=C(c1cnn2c(=O)cc(-c3ccc(C4CCCCC4)cc3)[nH]c12)N1CC(C(F)F)C1 [Example 38, 5-(4-Cyclohexylphenyl)-3-(3-(difluoromethyl)azetidine-1-carbonyl)pyrazolo[1,5-a]pyrimidin-7(4H)-one]	12 nM	27 nM
